Measurements reported in patent US11371025B2, “Non-covalent loading of plant picovirus particles” (CASE WESTERN RESERVE UNIVERSITY, priority 2013, dated 2022).
Where a name gives a salt, the structure may show the parent alone.

Experiments:
HeLa cells [1] = details: 0.2 μM DAPI, 60 min incubation
Description: Cells were fixed and stained with WGA-A488 (Invitrogen) as described above. […] Confocal images were captured and analyzed as described above.
For delivery studies, the DAPI concentration was five magnitudes lower measuring only 0.2 μM DAPI.

HeLa cells [2] = assay: XTT cell viability assay, HeLa; format: cell-based, human; details: drug concentration, 24 h exposure, washed, further 24 h
HT-29 cells = assay: XTT cell viability assay, HT-29; format: cell-based; details: Homo sapiens, drug concentration, 24 h exposure, washed, further 24 h
PC-3 cells = assay: XTT cell viability assay, PC-3; format: cell-based; details: Homo sapiens, drug concentration, 24 h exposure, washed, further 24 h

Compound: 4′,6-diamidino-2-phenylindole [DAPI]
- fluorescent signals from the nuclei (HeLa cells [1]): do not show any apparent fluorescent signals

Compound: N.N.[Cl][Pt][Cl] [CDDP, cis-dichlorodiammine platinum(II)]
- IC50 (HeLa cells [2]): 12 to 21 µM

Compound: Nc1ccc2cc3ccc(N)cc3nc2c1 [proflavine, 3,6-diaminoacridine hydrochloride]
- IC50 (HeLa cells [2]; Homo sapiens): 1.8 to 2.9 µM
- IC50 (HT-29 cells): 6.13 µM
- IC50 (PC-3 cells): 6.13 µM
